Reference: US20240158446A1, “CYCLIC COMPOUND HAVING SELECTIVE INHIBITORY ACTION ON KRAS OVER HRAS AND NRAS” (CHUGAI SEIYAKU KABUSHIKI KAISHA, priority 2021, published 2024)
Where a SMILES comes first, the peptide text is derived from it. Bridges are numbered along the chain shown (N, C = ends). [ ]: non-standard residue; d: D form. hPhe(3-Cl-4-CF3) = N[C@@H](CCc1ccc(C(F)(F)F)c(Cl)c1)C(=O)O; NPrPhe(4-CF3) = CCCN[C@@H](Cc1ccc(C(F)(F)F)cc1)C(=O)O; NMeGly(cPent) = CN[C@H](C(=O)O)C1CCCC1; Pro(4,4-F2) = O=C(O)[C@@H]1CC(F)(F)CN1; Hyp = O=C(O)[C@@H]1C[C@@H](O)CN1; NMeL = CN[C@@H](CC(C)C)C(=O)O; NMeA = CN[C@@H](C)C(=O)O; Ac5c = NC1(C(=O)O)CCCC1; Aze = O=C(O)[C@@H]1CCN1; Ac4c = NC1(C(=O)O)CCC1; Sar = CNCC(=O)O

How the values were obtained:
[1] = molecular target: GDP-bound KRAS wild-type protein (Homo sapiens, UniProt P01116); experiment: Binding to KRAS by surface plasmon resonance (SPR), Single Cycle Kinetics; details: SPR Single Cycle Kinetics, GDP-bound KRAS wild-type protein, 1:1 binding model; read-out: KRAS KD
Sequence of GDP-bound KRAS wild-type protein (P01116 whole entry): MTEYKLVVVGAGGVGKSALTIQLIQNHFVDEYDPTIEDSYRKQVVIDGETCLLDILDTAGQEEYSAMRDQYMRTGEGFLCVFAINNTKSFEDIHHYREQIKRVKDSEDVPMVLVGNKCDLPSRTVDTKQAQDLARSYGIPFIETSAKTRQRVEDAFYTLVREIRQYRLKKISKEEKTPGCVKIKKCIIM

[2] = molecular target: GDP-bound NRAS wild-type protein (Homo sapiens, UniProt P01111); experiment: Binding to NRAS by surface plasmon resonance (SPR), Single Cycle Kinetics; details: SPR, GDP-bound NRAS wild-type protein vs GDP-bound KRAS wild-type protein
Sequence of GDP-bound NRAS wild-type protein (P01111 whole entry): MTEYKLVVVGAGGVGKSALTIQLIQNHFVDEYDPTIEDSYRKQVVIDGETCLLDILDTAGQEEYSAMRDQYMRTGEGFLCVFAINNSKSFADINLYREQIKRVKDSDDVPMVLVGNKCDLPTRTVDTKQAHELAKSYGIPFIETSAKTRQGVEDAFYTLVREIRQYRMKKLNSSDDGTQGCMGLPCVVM

[3] = molecular target: GDP-bound HRAS wild-type protein (Homo sapiens, UniProt P01112); experiment: Binding to HRAS by surface plasmon resonance (SPR), Single Cycle Kinetics; details: SPR, GDP-bound HRAS wild-type protein vs GDP-bound KRAS wild-type protein
Sequence of GDP-bound HRAS wild-type protein (P01112 whole entry): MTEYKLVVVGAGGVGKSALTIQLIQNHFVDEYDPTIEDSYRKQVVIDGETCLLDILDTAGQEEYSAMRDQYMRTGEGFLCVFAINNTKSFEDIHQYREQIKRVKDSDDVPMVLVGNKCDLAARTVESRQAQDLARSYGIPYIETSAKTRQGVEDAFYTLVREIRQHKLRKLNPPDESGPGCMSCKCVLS

Structure (SMILES) | Kd [1] [nM] | NRAS/KRAS (ratio of KD value for NRAS to KD value for KRAS) [2] | HRAS/KRAS (ratio of KD value for HRAS to KD value for KRAS) [3]
CCCN1C(=O)CN(C)C(=O)[C@@H]2CCN2C(=O)[C@H]([C@@H](C)CC)NC(=O)[C@H](CC(C)C)N(C)C(=O)C[C@@H](C(=O)N(C)C)NC(=O)[C@H](C2CCCC2)N(C)C(=O)C2(CCCC2)NC(=O)[C@@H]2C[C@@H](OCC)CN2C(=O)[C@H](CCc2ccc(C(F)(F)F)c(Cl)c2)NC(=O)CN(C)C(=O)[C@@H]1Cc1ccc(C(F)(F)F)cc1 [PP0377] ([NMeL]I[Aze][Sar][NPrPhe(4-CF3)][Sar][hPhe(3-Cl-4-CF3)][Hyp](Et)[Ac5c][NMeGly(cPent)]D-NMe2; lactam N-11) | 0.7 | B (a compound having 3 or more and less than 10 is denoted as B) | C (A compound having a KD ratio of 0.1 or more and less than 3 is denoted as C)
CCCN1C(=O)[C@@H]2CCN2C(=O)[C@H](C)N(C)C(=O)[C@H]([C@@H](C)CC)NC(=O)[C@H](CC(C)C)N(C)C(=O)C[C@@H](C(=O)N(C)C)NC(=O)[C@H](C2CCCC2)N(C)C(=O)C2(CCCC2)NC(=O)[C@@H]2CCCN2C(=O)[C@H](CCc2ccc(C(F)(F)F)c(Cl)c2)NC(=O)CN(C)C(=O)[C@@H]1Cc1ccc(C(F)(F)F)cc1 [PP0379] ([NMeL]I[NMeA][Aze][NPrPhe(4-CF3)][Sar][hPhe(3-Cl-4-CF3)]P[Ac5c][NMeGly(cPent)]D-NMe2; lactam N-11) | 0.38 | C (A compound having a KD ratio of 0.1 or more and less than 3 is denoted as C) | B (a compound having 3 or more and less than 10 is denoted as B)
CCCN1C(=O)[C@@H]2CCN2C(=O)[C@H](C)N(C)C(=O)[C@H]([C@@H](C)CC)NC(=O)[C@H](CC(C)C)N(C)C(=O)C[C@@H](C(=O)N(C)C)NC(=O)[C@H](C2CCCC2)N(C)C(=O)C2(CCC2)NC(=O)[C@@H]2CCCN2C(=O)[C@H](CCc2ccc(C(F)(F)F)c(Cl)c2)NC(=O)CN(C)C(=O)[C@@H]1Cc1ccc(C(F)(F)F)cc1 [PP0380] ([NMeL]I[NMeA][Aze][NPrPhe(4-CF3)][Sar][hPhe(3-Cl-4-CF3)]P[Ac4c][NMeGly(cPent)]D-NMe2; lactam N-11) | 0.59 | C (A compound having a KD ratio of 0.1 or more and less than 3 is denoted as C) | B (a compound having 3 or more and less than 10 is denoted as B)
CCCN1C(=O)[C@@H]2CCN2C(=O)[C@H](C)N(C)C(=O)[C@H]([C@@H](C)CC)NC(=O)[C@H](CC(C)C)N(C)C(=O)C[C@@H](C(=O)N(C)C)NC(=O)[C@H](C2CCCC2)N(C)C(=O)C2(CCCC2)NC(=O)[C@@H]2CC(F)(F)CN2C(=O)[C@H](CCc2ccc(C(F)(F)F)c(Cl)c2)NC(=O)CN(C)C(=O)[C@@H]1Cc1ccc(C(F)(F)F)cc1 [PP0381] ([NMeL]I[NMeA][Aze][NPrPhe(4-CF3)][Sar][hPhe(3-Cl-4-CF3)][Pro(4,4-F2)][Ac5c][NMeGly(cPent)]D-NMe2; lactam N-11) | 0.49 | C (A compound having a KD ratio of 0.1 or more and less than 3 is denoted as C) | B (a compound having 3 or more and less than 10 is denoted as B)
CCCN1C(=O)[C@@H]2CCN2C(=O)[C@H](C)N(C)C(=O)[C@H]([C@@H](C)CC)NC(=O)[C@H](CC(C)C)N(C)C(=O)C[C@@H](C(=O)N(C)C)NC(=O)[C@H](C2CCCC2)N(C)C(=O)C2(CCC2)NC(=O)[C@@H]2CC(F)(F)CN2C(=O)[C@H](CCc2ccc(C(F)(F)F)c(Cl)c2)NC(=O)CN(C)C(=O)[C@@H]1Cc1ccc(C(F)(F)F)cc1 [PP0382] ([NMeL]I[NMeA][Aze][NPrPhe(4-CF3)][Sar][hPhe(3-Cl-4-CF3)][Pro(4,4-F2)][Ac4c][NMeGly(cPent)]D-NMe2; lactam N-11) | 0.35 | C (A compound having a KD ratio of 0.1 or more and less than 3 is denoted as C) | B (a compound having 3 or more and less than 10 is denoted as B)
CCCN1C(=O)[C@@H]2CCN2C(=O)[C@H](C)N(C)C(=O)[C@H]([C@@H](C)CC)NC(=O)[C@H](CC(C)C)N(C)C(=O)C[C@@H](C(=O)N(C)C)NC(=O)[C@H](C2CCCC2)N(C)C(=O)C2(CCCC2)NC(=O)[C@@H]2C[C@@H](OCC)CN2C(=O)[C@H](CCc2ccc(C(F)(F)F)c(Cl)c2)NC(=O)CN(C)C(=O)[C@@H]1Cc1ccc(C(F)(F)F)cc1 [PP0383] ([NMeL]I[NMeA][Aze][NPrPhe(4-CF3)][Sar][hPhe(3-Cl-4-CF3)][Hyp](Et)[Ac5c][NMeGly(cPent)]D-NMe2; lactam N-11) | 0.24 | C (A compound having a KD ratio of 0.1 or more and less than 3 is denoted as C) | B (a compound having 3 or more and less than 10 is denoted as B)
CCCN1C(=O)[C@@H]2CCN2C(=O)[C@H](C)N(C)C(=O)[C@H]([C@@H](C)CC)NC(=O)[C@H](CC(C)C)N(C)C(=O)C[C@@H](C(=O)N(C)C)NC(=O)[C@H](C2CCCC2)N(C)C(=O)C2(CCC2)NC(=O)[C@@H]2C[C@@H](OCC)CN2C(=O)[C@H](CCc2ccc(C(F)(F)F)c(Cl)c2)NC(=O)CN(C)C(=O)[C@@H]1Cc1ccc(C(F)(F)F)cc1 [PP0384] ([NMeL]I[NMeA][Aze][NPrPhe(4-CF3)][Sar][hPhe(3-Cl-4-CF3)][Hyp](Et)[Ac4c][NMeGly(cPent)]D-NMe2; lactam N-11) | 0.18 | C (A compound having a KD ratio of 0.1 or more and less than 3 is denoted as C) | B (a compound having 3 or more and less than 10 is denoted as B)
CCCN1C(=O)[C@@H]2CCN2C(=O)CN(C)C(=O)[C@H]([C@@H](C)CC)NC(=O)[C@H](CC(C)C)N(C)C(=O)C[C@@H](C(=O)N(C)C)NC(=O)[C@H](C2CCCC2)N(C)C(=O)C2(CCC2)NC(=O)[C@@H]2CCCN2C(=O)[C@H](CCc2ccc(C(F)(F)F)c(Cl)c2)NC(=O)CN(C)C(=O)[C@@H]1Cc1ccc(C(F)(F)F)cc1 [PP0386] ([NMeL]I[Sar][Aze][NPrPhe(4-CF3)][Sar][hPhe(3-Cl-4-CF3)]P[Ac4c][NMeGly(cPent)]D-NMe2; lactam N-11) | 0.69 | C (A compound having a KD ratio of 0.1 or more and less than 3 is denoted as C) | B (a compound having 3 or more and less than 10 is denoted as B)
CCCN1C(=O)[C@@H]2CCN2C(=O)CN(C)C(=O)[C@H]([C@@H](C)CC)NC(=O)[C@H](CC(C)C)N(C)C(=O)C[C@@H](C(=O)N(C)C)NC(=O)[C@H](C2CCCC2)N(C)C(=O)C2(CCCC2)NC(=O)[C@@H]2CC(F)(F)CN2C(=O)[C@H](CCc2ccc(C(F)(F)F)c(Cl)c2)NC(=O)CN(C)C(=O)[C@@H]1Cc1ccc(C(F)(F)F)cc1 [PP0387] ([NMeL]I[Sar][Aze][NPrPhe(4-CF3)][Sar][hPhe(3-Cl-4-CF3)][Pro(4,4-F2)][Ac5c][NMeGly(cPent)]D-NMe2; lactam N-11) | 0.54 | C (A compound having a KD ratio of 0.1 or more and less than 3 is denoted as C) | B (a compound having 3 or more and less than 10 is denoted as B)
CCCN1C(=O)[C@@H]2CCN2C(=O)CN(C)C(=O)[C@H]([C@@H](C)CC)NC(=O)[C@H](CC(C)C)N(C)C(=O)C[C@@H](C(=O)N(C)C)NC(=O)[C@H](C2CCCC2)N(C)C(=O)C2(CCC2)NC(=O)[C@@H]2CC(F)(F)CN2C(=O)[C@H](CCc2ccc(C(F)(F)F)c(Cl)c2)NC(=O)CN(C)C(=O)[C@@H]1Cc1ccc(C(F)(F)F)cc1 [PP0388] ([NMeL]I[Sar][Aze][NPrPhe(4-CF3)][Sar][hPhe(3-Cl-4-CF3)][Pro(4,4-F2)][Ac4c][NMeGly(cPent)]D-NMe2; lactam N-11) | 0.78 | C (A compound having a KD ratio of 0.1 or more and less than 3 is denoted as C) | B (a compound having 3 or more and less than 10 is denoted as B)
CCCN1C(=O)[C@@H]2CCN2C(=O)CN(C)C(=O)[C@H]([C@@H](C)CC)NC(=O)[C@H](CC(C)C)N(C)C(=O)C[C@@H](C(=O)N(C)C)NC(=O)[C@H](C2CCCC2)N(C)C(=O)C2(CCCC2)NC(=O)[C@@H]2C[C@@H](OCC)CN2C(=O)[C@H](CCc2ccc(C(F)(F)F)c(Cl)c2)NC(=O)CN(C)C(=O)[C@@H]1Cc1ccc(C(F)(F)F)cc1 [PP0389] ([NMeL]I[Sar][Aze][NPrPhe(4-CF3)][Sar][hPhe(3-Cl-4-CF3)][Hyp](Et)[Ac5c][NMeGly(cPent)]D-NMe2; lactam N-11) | 0.16 | C (A compound having a KD ratio of 0.1 or more and less than 3 is denoted as C) | B (a compound having 3 or more and less than 10 is denoted as B)
CCCN1C(=O)[C@@H]2CCN2C(=O)CN(C)C(=O)[C@H]([C@@H](C)CC)NC(=O)[C@H](CC(C)C)N(C)C(=O)C[C@@H](C(=O)N(C)C)NC(=O)[C@H](C2CCCC2)N(C)C(=O)C2(CCC2)NC(=O)[C@@H]2C[C@@H](OCC)CN2C(=O)[C@H](CCc2ccc(C(F)(F)F)c(Cl)c2)NC(=O)CN(C)C(=O)[C@@H]1Cc1ccc(C(F)(F)F)cc1 [PP0390] ([NMeL]I[Sar][Aze][NPrPhe(4-CF3)][Sar][hPhe(3-Cl-4-CF3)][Hyp](Et)[Ac4c][NMeGly(cPent)]D-NMe2; lactam N-11) | 0.2 | C (A compound having a KD ratio of 0.1 or more and less than 3 is denoted as C) | B (a compound having 3 or more and less than 10 is denoted as B)
